In PubChem BioAssay (NCI) one finds GI50 and TGI data, which are given here for 8 molecules.

Test systems include BT-549 breast; CCRF-CEM leukemia; IGROV1 ovarian; MOLT-4 leukemia; OVCAR-8 ovarian; RXF 393 renal; SF-295 CNS; SF-539 CNS; SK-MEL-28 melanoma; SNB-19 CNS.
Common to all, as to experiment: NCI tumour cell line growth inhibition, 48 h

Several values for one entry are separate records, joined by “and”; a condition that tells them apart may be missing. Identical values can stand only once.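 1) Cells in 96-well plates. 2) Compound, 48 h, 5 concentrations. 3) Linear interpolation between surrounding doses. 4) Unreached endpoint = highest concentration. At the GI50, growth is halved. TGI: concentration producing complete growth inhibition.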 Where a SMILES comes first, the peptide text is derived from it. Bridges are numbered along the chain shown (N, C = ends). [ ]: non-standard residue; d: D form. aThr = C[C@H](O)[C@H](N)C(=O)O Bounds are passed on as bounds.

In the case of `CC(=O)NC1C(O[C@H]2C[C@H]3[C@@H]4CC=C5C[C@@H](O)CC[C@]5(C)[C@H]4CC[C@]3(C)[C@H]2[C@H](C)C(=O)CCC(C)C)OCC(O)C1O` (stereo not given in full), the GI50 is 0.776 µM in the experiment with BT-549 breast; 1.25 µM in the experiment with CCRF-CEM leukemia; 3.37 µM in the experiment on IGROV1 ovarian; 1.22 µM in the experiment with MOLT-4 leukemia; 15.7 µM in the experiment with OVCAR-8 ovarian; 0.398 µM with RXF 393 renal. The GI50 is 0.5 µM in the experiment on SF-295 CNS, 0.568 µM with SF-539 CNS, 0.928 µM in the experiment on SK-MEL-28 melanoma and 3.31 µM in the experiment on SNB-19 CNS. In addition, the TGI in the experiment on BT-549 breast was 6.96 µM; in the experiment on CCRF-CEM leukemia it was 4.15 µM; with IGROV1 ovarian it was more than 42.5 µM; in the experiment with MOLT-4 leukemia, 3.11 µM; in the experiment with OVCAR-8 ovarian, more than 42.5 µM; in the experiment on RXF 393 renal, 1.41 µM. Moreover, the TGI came to 1.23 µM with SF-295 CNS, 2.33 µM in the experiment with SF-539 CNS, 2.78 µM in the experiment on SK-MEL-28 melanoma and 11 µM in the experiment on SNB-19 CNS.
As for `Cc1cc(Br)c(NC(=O)c2c(-c3c(Cl)cccc3Cl)noc2C)c(Br)c1`, the GI50 was more than 100 µM in the experiment with BT-549 breast; more than 100 µM in the experiment on CCRF-CEM leukemia; more than 100 µM with IGROV1 ovarian; more than 100 µM in the experiment on MOLT-4 leukemia; more than 100 µM in the experiment with OVCAR-8 ovarian; 71.9 µM in the experiment with RXF 393 renal. Besides, the GI50 with SF-295 CNS is 2.15 µM; with SF-539 CNS, more than 100 µM; in the experiment with SK-MEL-28 melanoma, more than 100 µM; in the experiment on SNB-19 CNS, more than 100 µM. For the same molecule, the TGI in the experiment on BT-549 breast, with CCRF-CEM leukemia, in the experiment with IGROV1 ovarian, with MOLT-4 leukemia, in the experiment with OVCAR-8 ovarian and with RXF 393 renal was more than 100 µM throughout. The TGI with SF-295 CNS, with SF-539 CNS, with SK-MEL-28 melanoma and in the experiment with SNB-19 CNS was more than 100 µM in each case.
For `COC12C(COC(=O)NCCO)C3=C(C(=O)C(C)=C(N)C3=O)N1CC1NC12` (stereo not given), the TGI is 171 µM in the experiment on BT-549 breast; more than 264 µM with CCRF-CEM leukemia; 116 µM in the experiment with IGROV1 ovarian; more than 264 µM with MOLT-4 leukemia; more than 264 µM in the experiment with OVCAR-8 ovarian; more than 264 µM in the experiment on RXF 393 renal. Also, the TGI was more than 264 µM with SF-295 CNS, 98.7 µM in the experiment on SF-539 CNS, more than 264 µM in the experiment on SK-MEL-28 melanoma and 169 µM in the experiment with SNB-19 CNS. The GI50 was 39.8 µM in the experiment with IGROV1 ovarian; 55 µM in the experiment on OVCAR-8 ovarian; 141 µM in the experiment with RXF 393 renal; 24.3 µM with SF-295 CNS; 13.9 µM in the experiment on SF-539 CNS.
`CC(C)C[C@@H]1NC(=O)[C@@H]2CCCN2C(=O)[C@@H]2CCCN2C(=O)[C@H](CC(C)C)NC(=O)[C@H](CO)NC(=O)[C@H](CCCCN)NC(=O)[C@H]([C@H](C)O)NC(=O)[C@@H]2CSSC[C@@H](NC1=O)C(=O)N[C@@H](Cc1ccccc1)C(=O)N1CCC[C@H]1C(=O)N[C@@H](CC(=O)O)C(=O)NCC(=O)N[C@@H](CCCN=C(N)N)C(=O)N2` (cyclo(C[aThr]KSLPPL[dC]FPDGR); disulfide 1-9): the GI50 in the experiment on BT-549 breast is more than 50 µM; in the experiment on CCRF-CEM leukemia, more than 50 µM; in the experiment on IGROV1 ovarian, more than 46.4 µM; in the experiment on MOLT-4 leukemia, more than 50 µM; in the experiment with OVCAR-8 ovarian it was more than 50 µM; with RXF 393 renal, more than 50 µM. Moreover, the GI50 in the experiment on SF-295 CNS, in the experiment with SF-539 CNS, in the experiment with SK-MEL-28 melanoma and in the experiment on SNB-19 CNS was more than 50 µM throughout. In addition, the TGI in the experiment on BT-549 breast, with CCRF-CEM leukemia, in the experiment on IGROV1 ovarian, with MOLT-4 leukemia, in the experiment on OVCAR-8 ovarian and in the experiment with RXF 393 renal was more than 50 µM throughout. Besides, the TGI in the experiment with SF-295 CNS, in the experiment on SF-539 CNS, in the experiment on SK-MEL-28 melanoma and in the experiment on SNB-19 CNS was more than 50 µM throughout.
For the molecule `COc1ccc(C(O)c2cc3c(N)c(C(=O)Nc4cccc5ccccc45)sc3nc2C)cc1` (stereo not given), the GI50 was 0.385 µM in the experiment on BT-549 breast; 0.378 µM in the experiment with CCRF-CEM leukemia; 0.574 µM in the experiment on IGROV1 ovarian; 0.399 µM in the experiment on MOLT-4 leukemia; 0.373 µM with OVCAR-8 ovarian; 3.23 µM in the experiment with RXF 393 renal. Also, the GI50 in the experiment with SF-295 CNS was 3.4 µM; with SF-539 CNS it was 0.025 µM; in the experiment with SNB-19 CNS, 0.469 µM. Moreover, the TGI is more than 100 µM with CCRF-CEM leukemia; more than 100 µM in the experiment with IGROV1 ovarian; more than 33.2 µM with MOLT-4 leukemia; more than 100 µM with OVCAR-8 ovarian; more than 100 µM with RXF 393 renal; more than 100 µM with SF-295 CNS. Besides, the values for the TGI in the experiment with SF-539 CNS and in the experiment on SNB-19 CNS were 0.0698 µM and more than 100 µM, respectively.
With `Nc1nc(=S)c2ncn(C3OC(COP(=O)(O)O)C(O)C3O)c2[nH]1` (stereo not given), the GI50 in the experiment with BT-549 breast is 2.38 µM; in the experiment with CCRF-CEM leukemia, 0.406 µM; in the experiment on IGROV1 ovarian it was 5.23 µM; in the experiment with MOLT-4 leukemia, 0.354 µM; with OVCAR-8 ovarian, 0.715 µM; in the experiment on RXF 393 renal it was 1.43 µM. In addition, the GI50 with SF-295 CNS was 0.378 µM; in the experiment on SF-539 CNS, 2.32 µM; with SK-MEL-28 melanoma, 6.57 µM; in the experiment on SNB-19 CNS it was more than 100 µM. Further, the TGI in the experiment on BT-549 breast was more than 100 µM; with CCRF-CEM leukemia, more than 100 µM; with IGROV1 ovarian, more than 100 µM; in the experiment on MOLT-4 leukemia it was more than 100 µM; in the experiment on OVCAR-8 ovarian it was more than 100 µM; in the experiment on RXF 393 renal, 9.75 µM. Also, the TGI in the experiment with SF-295 CNS, in the experiment on SF-539 CNS, with SK-MEL-28 melanoma and with SNB-19 CNS was more than 100 µM throughout.
As to `CC(=O)O[C@H]1CC2C(C3CC[C@H](C(C)CCC(=O)O)[C@]31C)[C@H](OC(C)=O)C[C@@H]1CC3(CC[C@]21C)OOC1(CCC(C)CC1)OO3` (stereo not given in full), the TGI with BT-549 breast is 15.1 µM and 7.14 µM; in the experiment with CCRF-CEM leukemia, 5.26 µM and 4.09 µM; with IGROV1 ovarian it was 4.64 µM and 2.76 µM; in the experiment on MOLT-4 leukemia, 10.6 µM and 3.79 µM; with OVCAR-8 ovarian it was 14.1 µM and 5.66 µM; with RXF 393 renal, 27.9 µM and 23.9 µM. Moreover, the TGI is 19.8 µM and 5.53 µM with SF-295 CNS; 20.6 µM and 3.86 µM with SF-539 CNS; 11.8 µM and 13.2 µM with SK-MEL-28 melanoma; 20.1 µM and 14.7 µM with SNB-19 CNS. Besides, the GI50 in the experiment on SF-295 CNS was 7.46 µM and 2.25 µM; in the experiment on SF-539 CNS, 8.15 µM and 1.94 µM; in the experiment on SNB-19 CNS, 7.57 µM and 3.57 µM.
Consider `Fc1ccc(NC(c2ccc(F)cc2)C2CCN(CCCCc3ccccc3)CC2)cc1` (stereo not given), for which the GI50 is 1.55 µM with BT-549 breast; 3.62 µM with CCRF-CEM leukemia; 2.18 µM with IGROV1 ovarian; 1.74 µM with MOLT-4 leukemia; 2.05 µM in the experiment on OVCAR-8 ovarian; 1.72 µM with RXF 393 renal. Besides, the GI50 was 1.49 µM in the experiment on SF-295 CNS, 1.71 µM in the experiment on SF-539 CNS, 1.76 µM in the experiment on SK-MEL-28 melanoma and 1.99 µM in the experiment with SNB-19 CNS. For the same molecule, the TGI amounted to 2.97 µM in the experiment with BT-549 breast; 9.12 µM with CCRF-CEM leukemia; 5.17 µM in the experiment with IGROV1 ovarian; 4.37 µM with MOLT-4 leukemia; 4.19 µM in the experiment on OVCAR-8 ovarian; 3.17 µM in the experiment on RXF 393 renal. For the same molecule, the TGI with SF-295 CNS was determined as 2.86 µM; with SF-539 CNS, 3.1 µM; with SK-MEL-28 melanoma, 3.28 µM; in the experiment with SNB-19 CNS, 4.9 µM.
